Blank lines part the entries; values can stand above or below the compound they belong to.
Tests used:
In situ rat perfusion = type: in vivo; conditions: 100 μM; for Ka1 absorption rate coefficient: six independent experiments
[1] = Caco-2 cell monolayers transport assay; type: in vitro ADME; conditions: human, Caco-2
lung A549 = type: cell-based, human; conditions: read-out: IC50 A549; 24 h incubation, MTT, mean ± SD (n = 4)
[2] = test system: triple-negative breast MDA-MB-231; type: cell-based, human; conditions: read-out: IC50 MDA-MB-231; 24 h incubation, MTT, mean ± SD (n = 4)
[3] = test system: non-tumorigenic human embryonic kidney cells HEK293T; type: cell-based; conditions: read-out: IC50 HEK-293T; 24 h incubation, MTT, mean ± SD (n = 4)
pancreas MiaPaca2 = type: cell-based, human; conditions: read-out: IC50 MiaPaca2; 24 h incubation, MTT, mean ± SD (n = 4)
prostate DU-145 = type: cell-based, human; conditions: read-out: IC50 DU-145; 24 h incubation, MTT, mean ± SD (n = 4)
plasmid (pBR322) DNA = experiment: Electrophoresis mobility shift assay with plasmid DNA; type: binding; conditions: 37 °C, 20 h, metal/DNAbp ratios 0.25–2.0
leukemia Jurkat-T = type: cell-based, human; conditions: read-out: IC50 Jurkat; 24 h incubation, MTT, mean ± SD (n = 4)
Caco-2 monolayers = experiment: Caco-2 cell monolayers transport assay; type: in vitro ADME; conditions: Caco-2 monolayers, 20 μM, three independent experiments

Compound: N.N.[Cl][Pt][Cl] [cisplatin]
IC50 (lung A549): 114 ± 9.1 µM
IC50 [2]: 131 ± 18 µM
IC50 [3]: 69 ± 6.7 µM
IC50 (pancreas MiaPaca2): 76.5 ± 7.4 µM
IC50 (prostate DU-145): 112 ± 33 µM
effect on electrophoretic mobility of plasmid forms (plasmid (pBR322) DNA): able to both increase and decrease the mobility of the OC and the CCC forms
IC50 (leukemia Jurkat-T): 10.8 ± 1.2 µM

Compound: COCCc1ccc(OCC(O)CNC(C)C)cc1 (stereo not drawn) [metoprolol]
Papp at 90 min, 20 μM [1]: 23.2 ×10⁻⁶ cm/s
Peff (In situ rat perfusion): 5.40 × 10^–5 cm/s
Ka1 absorption rate coefficient (In situ rat perfusion): 2.30 h^–1

More lines, now with the values ahead:

Peff (In situ rat perfusion): 5.19 × 10^–6 cm/s
Compound: CC(C)NCC(O)COc1ccc(CC(N)=O)cc1 (stereo not drawn) [atenolol]

Papp at 90 min, 20 μM [1]: 1.86 ×10⁻⁶ cm/s
Peff (In situ rat perfusion): 3.97 × 10^–5 cm/s
Ka1 absorption rate coefficient (In situ rat perfusion): 1.68 h^–1
Compound: CN/C(=N/CCSCc1nc[nH]c1C)NC#N [cimetidine]

Peff (Caco-2 monolayers): 1.90 × 10^–7 cm/s
Compound: Lucifer Yellow
